# Test results taken from publication PMC11449324, “Functional comparison of human and murine equilibrative nucleobase transporter 1” (PLOS ONE, 2024).
# Assays:
# Type in all cases: cell-based, human
# [1] = tested on: HEK293-mslc43a3 cells; assay: MTT cell viability assay, HEK293-mslc43a3
# Protocol: (§1) Transfected-HEK293, MOLT-4, and L1210 cells were seeded into 24-well plates at a density of 1.1x10^5 cells per well in complete culture medium. […] Medium containing no cells was used to determine spontaneous MTT reduction (background). In transfected-HEK293 cells, media was removed via a vacuum-powered aspirator and replaced with 150 μL of Dulbecco’s phosphate buffered saline (DPBS—137 mM NaCl, 2.7 mM KCl, 6.3 mM Na2HPO4, 1.5 mM KH2PO4, 0.5 mM MgCl2, 0.9 mM CaCl2, pH 7.4) containing MTT (1 mg/mL) for 90 minutes at 37°C. In MOLT-4 and L1210, cell suspension was transferred to 1.5 mL microcentrifuge tubes and centrifuged for 10 minutes at 3000 rcf. Following centrifugation, media was removed via gentle pipetting and replaced with 150 μL of DPBS containing MTT (1 mg/mL) for 90 minutes at 37°C. Microcentrifuge tubes were centrifuged again for 15 minutes at 23,500 rcf, and then DPBS containing MTT was removed via a vacuum-powered aspirator. The resultant formazan crystals were solubilized in 500 μL of DMSO and transferred to a 96-well plate in 200 μL duplicates. Absorbance was measured at 570 nm, in a SpectraMax® i3x Multi-Mode Detection Platform (Molecular Devices, San Jose, CA). After background subtraction, % cell viability was calculated as the ratio of absorbance in the presence of test compound to that measured with vehicle alone (X 100).
# [2] = tested on: HEK293-EV cells; assay: MTT cell viability assay, HEK293-EV; details: Homo sapiens, 48 h, first-phase EC50 where biphasic
# Protocol: as §1
# [3] = tested on: HEK293-hSLC43A3 cells; assay: MTT cell viability assay, HEK293-hSLC43A3
# Protocol: as §1
smiles,measurement,setting,value
"Sc1ncnc2nc[nH]c12 [6-MP, 6-Mercaptopurine]",shift in EC50 (increased sensitivity) relative to HEK293-EV cells,[1]; HEK293-mslc43a3 vs HEK293-EV,19 fold
same,EC50,"[1]; Homo sapiens, HEK293-mslc43a3, 48 h, MTT, first-phase EC50 where biphasic",960 ± 280 nM
same,EC50,[2],18800 ± 510 nM
same,shift in EC50 (increased sensitivity) relative to HEK293-EV cells,[3]; HEK293-hSLC43A3 vs HEK293-EV,19 fold
same,EC50,"[3]; Homo sapiens, HEK293-hSLC43A3, 48 h, MTT, first-phase EC50 where biphasic",990 ± 90 nM
